Source: patent US8258099B2, “Pin1-modulating compounds and methods of use thereof” (Max-Planck-Gesellschaft zur Foerderung der Wissenschaften …, priority 2004, dated 2012)
Square brackets hold non-standard residues; d marks the D form. Peptide text beside a SMILES is read from it. d(pT) = C[C@H](OP(=O)(O)O)[C@@H](N)C(=O)O; 2Nal = N[C@@H](Cc1ccc2ccccc2c1)C(=O)O; Pip = O=C(O)[C@@H]1CCCCN1

Columns and labels:
[1] = target: XlPin1; assay: Protease free PPIase assay, XlPin1; type: biochemical, X. laevis
Experimental: Protein concentrations were determined using the extinction coefficient ε280=21030 M^−1 cm^−1 for hPin1, ε280=6979 M^−1 cm^−1 for the hPin1 PPIase domain, ε280=21030 M^−1 cm^−1 for XlPin1, ε280=8250 M^−1 cm^−1 for hPar14 and ε280=8250 M^−1 cm^−1 for hCyp18. Extinction coefficients were calculated using the program ProtParam Tool at ExPASy (SIB, Switzerland). All measurements were done at 10° C. in 35 mM Hepes buffer (pH 7.8).
The determination of the kinetic constants of the cis/trans isomerization within the protease-free system was performed using fluorescence based measurements (Garcia-Echeverria et al., 1993, Zhang et al., 2002) on a Hitachi F-3010 fluorescence spectrophotometer with H-Abz-Ala-Glu-Pro-Phe-NH-Np (SEQ ID NO: 2) as substrate. The substrate stock solution was 12 mM in anhydrous trifluoroethanol/0.55 M LiCl. […] The excitation wavelength was 320 nm (spectral bandwidth 3 nm) and emission was detected at 420 nm (spectral bandwidth 10 nm).
Data analysis was performed by single-exponential nonlinear regression using the SigmaPlot Scientific Graphing System Version 5.00 (Jandel Corp.). […] The rate constant k0 was determined in the absence of Pin1. The first order rate constants kenz was calculated from the equation kenz=kobs−k0. […]

[2] = target: hCyp18 (Homo sapiens, UniProt P62937); assay: Protease coupled PPIase assay, hCyp18; type: biochemical
hCyp18, sequence (P62937 whole entry): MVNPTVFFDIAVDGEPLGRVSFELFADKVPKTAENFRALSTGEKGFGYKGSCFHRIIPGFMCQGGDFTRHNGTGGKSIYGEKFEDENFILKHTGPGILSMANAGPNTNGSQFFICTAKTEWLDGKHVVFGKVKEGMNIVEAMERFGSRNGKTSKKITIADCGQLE
Experimental: (§1) PPIase activities were monitored on a Hewlett-Packard 8452A diode array spectrophotometer according to Fischer et al., 1984 and Zhang et al., 2002. The hPar14 PPIase activity was measured with Suc-Ala-Arg-Pro-Phe-NH-Np (SEQ ID NO: 3) (final concentration 75 μM) as substrate and α-chymotrypsin (final concentration 60 μM) as isomer specific protease. PPIase activity of hCyp 18 and FKBP12 were measured using Suc-Ala-Ala-Pro-Phe-NH-Np (SEQ ID NO: 7) as substrate (final concentration 16 μM) and α-chymotrypsin (final concentration 60 μM) as isomer specific protease. PPIase activity of hPin1 was measured with Ac-Ala-Ala-Ser(PO3H2)-Pro-Arg-NH-Np (SEQ ID NO: 4) (final concentration 10 μM) as substrate and trypsin (final concentration 60 μM) as isomer specific protease. […] Measurements were monitored at 390 nm.
(§2) Data analysis was performed by single-exponential nonlinear regression using the SigmaPlot Scientific Graphing System Version 5.00 (Jandel Corp.). […] The rate constant k0 was determined in the absence of Pin1. The first order rate constants kenz was calculated from the equation kenz=kobs−k0. IC50 and Ki values were determined by fitting the first order rate constants kenz against the concentration of the inhibitory peptide by nonlinear regression according to Schutkowski et al., 1995 or a model for tight binding inhibitors (Morrison, 1969).

[3] = target: FKBP12 (Homo sapiens, UniProt P62942); assay: Protease coupled PPIase assay, FKBP12; type: biochemical
FKBP12, sequence (P62942 whole entry): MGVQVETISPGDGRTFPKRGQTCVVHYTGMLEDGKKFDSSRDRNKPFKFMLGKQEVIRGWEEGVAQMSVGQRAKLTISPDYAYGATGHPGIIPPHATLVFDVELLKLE
Experimental: as §1, §2

Q: `CC(=O)N[C@@H](Cc1ccccc1)C(=O)N[C@@H](C(=O)N1CCCC[C@H]1C(=O)N[C@@H](Cc1ccc2ccccc2c1)C(=O)N[C@@H](CCC(N)=O)C(N)=O)[C@H](C)OP(=O)(O)O` [Peptide 17, Ac-Phe-D-Thr(PO3H2)-Pip-Nal-Gln-NH2] (Ac-F[d(pT)][Pip][2Nal]Q-NH2) was tested. Which Ki ([1]; footnote b) (text of footnote not given), probably XlPin1) did it give?
A: 34.4 nM

Q: And the “difference in affinity for recombinant Pin1 of both organisms” value ([1]; hPin1 versus XlPin1)?
A: no marked difference

Q: What about the “inhibition of Cyp18” value [2] of the same compound?
A: no inhibition

Q: What about the “inhibition of FKBP12” value [3] of the same compound?
A: no inhibition
